Read-outs that look alike come from different tables or passages of the source.
Legend:
[1] = target: T1, endogenous SQLE in human liver microsomes (Homo sapiens, UniProt Q14534); test: HLM assay of SQLE activity (human liver microsomes, LC-MS/MS); assay type: biochemical
T1 construct: human liver microsomes (HLM) which have the advantage of providing endogenous SQLE; tissue Sekisui Xenotech, LLC, Kansas City, KS; host or cells: human liver microsomes
Procedure: All biochemistry assay buffers contained 100 mM Tris, 0.1% triton X-100, 1 mM EDTA, 0.1 mM FAD and 1 mM NADPH. […] The reaction was quenched by adding 100 μL of 10 mM ammonium acetate buffer, followed by addition of 600 μL ethyl acetate containing 0.4 mg/mL butylated hydroxytoluene (BHT) to prevent oxidation. The mixture was vortexed for 30 min to extract 2,3-oxidosqualene, then centrifuged at 4000 rpm for 10 min. The supernatant was transferred to a new plate for LC-MS/MS detection. […] Kinetic analysis for HLMs (Sekisui Xenotech, LLC, Kansas City, KS) was performed as for baculosomes, with HLM concentration at 0.5 mg/ml. […] (Sigma-Aldrich). […] An aliquot of 7.5 μL was injected into the UPLC-MS/MS system. The instrument setup consisted of an AB Sciex API-6500 Mass Spectrometer (AB Sciex, USA) equipped with a Waters UPLC Acquity (Waters, USA). […] Formic acid in water (0.1%, v/v, mobile phase A) and a mixture of acetonitrile and isopropanol (80:20, v/v with 0.1% formic acid, mobile phase B) were employed as the mobile phase. An isocratic elution of 98% mobile phase B was used and run time was 1.5 min. The flow rate of mobile phase was set at 0.6 mL/min.

[2] = target: T2, baculosome-derived full-length SQLE (Homo sapiens, UniProt Q14534); test: Biochemistry assay of SQLE activity with SQLE baculosomes (LC-MS/MS detection of 2,3-oxidosqualene); assay type: biochemical; settings: for mechanism of inhibition with respect to squalene substrate: squalene varied from 50 to 0.39 μM, fixed inhibitor concentrations
T2 construct: we overexpressed full-length SQLE in Sf9 cells using a baculovirus system; made in house; host or cells: Sf9 insect cells (baculovirus), membrane preparation (baculosomes)
T2 sequence (Q14534 whole entry): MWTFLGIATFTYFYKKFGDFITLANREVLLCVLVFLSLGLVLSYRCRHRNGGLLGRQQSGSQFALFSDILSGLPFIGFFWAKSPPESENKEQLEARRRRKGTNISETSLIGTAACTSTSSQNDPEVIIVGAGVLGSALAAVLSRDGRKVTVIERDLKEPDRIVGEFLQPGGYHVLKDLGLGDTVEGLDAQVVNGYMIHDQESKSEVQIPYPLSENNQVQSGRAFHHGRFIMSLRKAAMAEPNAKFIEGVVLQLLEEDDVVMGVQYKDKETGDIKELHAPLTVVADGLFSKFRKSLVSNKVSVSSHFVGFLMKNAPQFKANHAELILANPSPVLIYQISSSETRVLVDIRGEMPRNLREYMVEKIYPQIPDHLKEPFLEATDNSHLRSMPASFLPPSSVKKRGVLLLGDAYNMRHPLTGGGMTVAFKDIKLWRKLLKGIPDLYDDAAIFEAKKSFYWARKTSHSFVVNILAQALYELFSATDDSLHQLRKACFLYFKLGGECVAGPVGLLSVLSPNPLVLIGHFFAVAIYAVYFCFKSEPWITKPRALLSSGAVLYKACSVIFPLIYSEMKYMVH
Procedure: pFastBac1-SQLE was transformed into DH10Bac E. coli (Thermo Fisher) for transposition into bacmid, and positive clones were selected on a blue/white LB agar plate. Recombinant bacmid as isolated from positive clones with the PureLink Hipure Plasmid DNA miniprep kit (Thermo Fisher) and transfected into Sf9 cells (Thermo Fisher) to generate recombinant virus stocks, which were amplified further before Sf9 infection at a multiplicity of infection of two. Infected cells were harvested 72 h post infection and resuspended in phosphate buffered saline, then disrupted by sonication. The cell lysate was clarified by centrifugation at 1500× g for 10 min, the supernatant was further centrifuged at 10,000× g for another 10 min to remove cell debris; and then the supernatant was harvested and centrifuged at 100,000× g for 90 min. The pellet of SQLE baculosomes was collected and homogenized in the buffer (50 mM potassium phosphate, 20% Glycerol, pH7.0) by micro-electric homogenizer (IKA Works, Germany). The protein concentration was determined by the Bradford method. SQLE baculosomes were aliquoted and stored at −80 ℃. The abundance of SQLE in the baculosomes compared to other subcellular fractions was evaluated by immunoblotting against the N-terminal his-tag. Y195A, and Y195F mutant baculosomes were prepared as described above from Sf9 cells infected with engineered viruses.
All biochemistry assay buffers contained 100 mM Tris, 0.1% triton X-100, 1 mM EDTA, 0.1 mM FAD and 1 mM NADPH. […] The reaction was quenched by adding 100 μL of 10 mM ammonium acetate buffer, followed by addition of 600 μL ethyl acetate containing 0.4 mg/mL butylated hydroxytoluene (BHT) to prevent oxidation. The mixture was vortexed for 30 min to extract 2,3-oxidosqualene, then centrifuged at 4000 rpm for 10 min. The supernatant was transferred to a new plate for LC-MS/MS detection. […] Kinetic analysis for HLMs (Sekisui Xenotech, LLC, Kansas City, KS) was performed as for baculosomes, with HLM concentration at 0.5 mg/ml. Kinetic analysis for recombinant SQLE was performed as for baculosomes, with the addition of 1.5 μg/ml recombinant P450R (Sigma-Aldrich).
Samples were dried down under nitrogen and then reconstituted with 70 μL of 0.2 mg/mL BHT in acetonitrile. An aliquot of 7.5 μL was injected into the UPLC-MS/MS system. The instrument setup consisted of an AB Sciex API-6500 Mass Spectrometer (AB Sciex, USA) equipped with a Waters UPLC Acquity (Waters, USA). The UPLC separation was performed on an ACQUITY UPLC BEH C18 (2.1 × 50 mm, 1.7 µm, Waters) at 40 ℃. Formic acid in water (0.1%, v/v, mobile phase A) and a mixture of acetonitrile and isopropanol (80:20, v/v with 0.1% formic acid, mobile phase B) were employed as the mobile phase. An isocratic elution of 98% mobile phase B was used and run time was 1.5 min. The flow rate of mobile phase was set at 0.6 mL/min.

[3] = target: T3, SQLE (118–574) (Homo sapiens, UniProt Q14534); test: Thermal shift assay, N-terminally truncated SQLE (118–574); assay type: binding; settings: 100 μM ligands
T3 construct: to the N-terminally truncated SQLE (118–574), resulting in the selection of this construct for further studies; His6-MBP (TEV site) (N, cleaved yes); made in house; host or cells: Rosetta (DE3) E. coli
T3 sequence (Q14534 118-574): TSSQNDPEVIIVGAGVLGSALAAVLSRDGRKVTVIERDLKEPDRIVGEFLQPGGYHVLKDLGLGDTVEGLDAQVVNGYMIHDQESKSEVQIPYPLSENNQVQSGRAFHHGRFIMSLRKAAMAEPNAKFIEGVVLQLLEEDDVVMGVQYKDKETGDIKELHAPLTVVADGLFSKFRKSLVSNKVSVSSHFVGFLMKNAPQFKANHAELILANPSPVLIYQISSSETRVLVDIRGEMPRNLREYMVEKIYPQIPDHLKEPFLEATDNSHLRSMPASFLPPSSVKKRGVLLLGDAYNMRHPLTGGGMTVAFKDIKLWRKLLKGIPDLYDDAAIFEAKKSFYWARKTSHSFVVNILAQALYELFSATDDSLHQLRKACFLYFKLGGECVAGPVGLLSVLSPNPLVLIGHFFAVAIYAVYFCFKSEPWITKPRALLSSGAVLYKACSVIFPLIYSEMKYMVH
Procedure: (§1) Thermal shift assays were performed in 96-well PCR plates using an RT-PCR instrument (ABI 7500 Fast, Applied Biosystems, USA). Standard assay conditions (20 μL) contain 12.5 μL protein (1 mg/mL) in storage buffer 50 mM Tris (pH 8.0), 500 mM NaCl, 5% glycerol and 100 μM corresponding ligands, 5 μL Protein Thermal Shift^TM buffer, and 2.5 μL of the ROX dye (8 × , Protein Thermal Shift^TM Dye Kit, Applied Biosystems, USA). All experiments were performed in triplicate and reaction mixtures were pre-incubated at 4 °C for 1 h. […] For the detergent screening, the SQLE protein was buffer exchanged to 500 mM NaCl, 50 mM Tris-HCl (pH 8.0) containing different detergents using Superdex^TM 200 Increase 10/300 GL gel-filtration column (GE Healthcare, USA) and assayed as described above.

[4] = target: T4, recombinant N-terminally truncated SQLE (118–574) (Homo sapiens, UniProt Q14534); test: Enzymatic assay with recombinant SQLE (118–574) plus recombinant P450R; assay type: biochemical; settings: saturating squalene, varied FAD
T4 construct: First, we used the recombinant N-terminally truncated SQLE (118–574); His6-MBP (TEV site) (N, cleaved yes); made in house; host or cells: Rosetta (DE3) E. coli
T4 sequence (Q14534 118-574): as above
Description: The cDNA of human SQLE (NCBI accession number: NM_003129.3) was cloned into pET28a expression vector (Supplementary Table 2). Multiple constructs were designed with six unique N-termini (starting at 1, 101, 111, 118, 124, 144) and four C-termini (ending at 488, 518, 543, 574), along with different affinity/solubilization tags expressed in Rosetta (DE3) E. coli (Shanghai Weidi Biotechnology). Soluble proteins were obtained for four of the expression constructs with N- and C-terminal boundaries corresponding to 101-574, 118-574, 101-488, and 118-488 and were used in crystallization trials. The His6-MBP-TEV-SQLE (118-574) construct in pET28a vector yielded crystals for structure determination. A detergent screen performed using thermal shift assay led to the identification of 3-[(3-cholamidopropyl)dimethylammonio]-1-propanesulfonate (CHAPS) as having the most stabilizing effect. CHAPS detergent was subsequently used for all extraction, purification and crystallization studies of SQLE protein. The plasmid bearing the sequence encoding SQLE was transformed into Rosetta (DE3) E. coli. Cells were grown at 37 °C and induced with 1 mM isopropyl β-D-1-thiogalactopyranoside for about 20 h at 15 °C in Luria Broth media. […] Protein was determined to be > 95% pure by SDS-PAGE and eluted as a monomer as assessed by SEC. […]

[5] = target: T5, SQLE (118-488) (Homo sapiens, UniProt Q14534); test: Thermal shift assay, SQLE (118-488); assay type: binding; settings: 100 μM ligands
T5 construct: Thermal shift assay fluorescence signals obtained for SQLE (118-488), with and without FAD; made in house; host or cells: Rosetta (DE3) E. coli
T5 sequence (Q14534 118-488): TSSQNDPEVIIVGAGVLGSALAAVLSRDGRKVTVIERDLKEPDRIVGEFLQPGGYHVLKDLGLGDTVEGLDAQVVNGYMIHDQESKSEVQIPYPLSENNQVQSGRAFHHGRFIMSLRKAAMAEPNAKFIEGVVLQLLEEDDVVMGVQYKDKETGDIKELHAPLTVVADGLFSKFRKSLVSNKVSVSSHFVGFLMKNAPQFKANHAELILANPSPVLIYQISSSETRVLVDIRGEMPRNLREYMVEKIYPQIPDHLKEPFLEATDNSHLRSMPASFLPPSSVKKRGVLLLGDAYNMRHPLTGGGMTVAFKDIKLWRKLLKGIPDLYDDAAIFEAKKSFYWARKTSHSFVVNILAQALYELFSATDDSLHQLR
Procedure: as §1

[6] = test system: human SQLE; settings: cited from earlier work; for IC50: previously reported
[7] = baculosome-derived SQLE, 1 h pre-incubation, 100 μM squalene, read-out: IC50
[8] = IC50, time-dependent inhibition, before increasing incubation time, compound incubation time varied from 0 to 6 h, starting value, 15 min reaction
[9] = compound incubation time varied from 0 to 6 h

T1 sequence (Q14534 whole entry): as the sequence (Q14534 whole entry) above

| IC50 [2, 7] | Structure (SMILES) | IC50 [2, 8] | time dependence of inhibition [2, 9] | mechanism of inhibition with respect to squalene substrate [2] | IC50 [6] | further results |
| --- | --- | --- | --- | --- | --- | --- |
| – | CN(C/C=C/C#CC(C)(C)C)Cc1cccc2ccccc12 [terbinafine] | – | – | – | – | inhibition at 100 µM ([1]; HLM assay, at 100 µM inhibitor concentration, read-out: maximal inhibition): 65% |
| > 100 µM | CCN(C/C=C/C#CC(C)(C)C)Cc1cccc(OCc2cc(-c3ccccc3)cs2)c1 [NB-598.ia] | – | – | – | – | – |
| > 100 µM | CCN(CC#CC#CC(C)(C)OC)Cc1cccc(OC[Si](C)(C)c2cccc(C)c2)c1 [Cmpd-4′′.ia] | – | – | – | – | – |
| – | Cc1cc2nc3c(=O)[nH]c(=O)nc-3n(C[C@H](O)[C@H](O)[C@H](O)COP(=O)(O)OP(=O)(O)OC[C@H]3O[C@@H](n4cnc5c(N)ncnc54)[C@H](O)[C@@H]3O)c2cc1C [FAD, flavin adenosine dinucleotide] | – | – | – | – | ΔTm ([3]; Supplementary Figure 1c): 2.1 °C; mean Tm ([3]; control Tm 48.0): 50.1 °C; Km [4]: 5.2 ± 0.5 µM; Km ([2]; SQLE baculosome, saturating squalene, varied FAD): 8.1 ± 0.6 µM; Km ([1]; HLMs, saturating squalene, varied FAD): 9.6 ± 0.5 µM; ΔTm ([5]; Supplementary Figure 1c): 4.7 °C; mean Tm ([5]; control Tm 44.0): 48.7 °C |
| 0.063 µM | CCN(C/C=C/C#CC(C)(C)C)Cc1cccc(OCc2cc(-c3ccsc3)cs2)c1 [NB-598] | 0.12 µM | time-dependent inhibition | non-competitive inhibition | 0.01 to 0.06 µM | IC50 ([2]; IC50, time-dependent inhibition, upon increasing incubation time, compound incubation time varied from 0 to 6 h, final value, 15 min reaction): 0.03 µM; mechanism of action (previous report) [6]: competitive |

| Structure (SMILES) | IC50 [2, 7] | IC50 [2, 8] | time dependence of inhibition [2, 9] | mechanism of inhibition with respect to squalene substrate [2] | IC50 [6] | further results |
| --- | --- | --- | --- | --- | --- | --- |
| CCN(CC#CC#CC(C)(C)OC)Cc1cccc(OC[Si](C)(C)c2ccccc2C)c1 [Cmpd-4′′] | 0.069 µM | 0.8 µM | time-dependent inhibition | non-competitive inhibition | 0.01 to 0.06 µM | – |

Reference: publication PMC6327030 (Nature Communications, 2019)
